These results are taken from patent US20130253022A1 (FOX CHASE CHEMICAL DIVERSITY CENTER, INC., priority 2010, published 2013).

Assay [1] relates to MES-induced seizure spread. In words: Maximal electroshock seizure (MES) test, mouse. The format is in vivo, mice. The following applies: for Duration of action MES: Mouse Maximal Electroshock (MES) test at 100 mg/kg, i.p.; for ED50: ip, mouse. The method, then:
Seizure-related assays, Maximal electroshock test: The most definitive assay for anti-seizure activity is the maximal electroshock (MES) test (Swinyard, E. A. Laboratory evaluation of antiepileptic drugs: review of laboratory methods, Epilepsia, 1969, 10, 107-119). […] With both rodent assays, the duration of action is of high importance as well as the potency of the response.
Methods to measure anticonvulsant activity: All tests were conducted by the Anticonvulsant Screening Program (ASP) of the National Institute of Neurological Disease and Stroke at the National Institutes of Health.
The Maximal Electroshock Seizure (MES) or Maximal Seizure Pattern Test: The MES is a model for generalized tonic-clonic seizures (Putnam and Merritt. Experimental determination of the anticonvulsant properties of some phenyl derivatives. Science 1937, 85, 113-118). It is highly reproducible with consistent endpoints. The behavioral and electrographic seizures generated in this model are consistent with the human disorder. This model identifies those compounds which prevent seizure spread.
In the MES test, an electrical stimulus of 0.2 s in duration (50 mA in mice and 150 mA in rat at 60 Hz) is delivered via corneal electrodes primed with an electrolyte solution containing an anesthetic agent. Mice are tested at 30 minutes and 4 hours following doses of 30, 100 and 300 mg/kg of test compound. Test compounds are administered intraperitoneally to the mice. Rats are tested at time intervals between 0.25 and 4 hours following a standard oral dose of 30 mg/kg. Abolition of the hindlimb tonic extensor component indicates the test compound's ability to inhibit MES-induced seizure spread.
Background: Protection in the maximal electroshock model is a classic sign of anticonvulsant action.

The next assay has as its system hippocampal neurons. The assay can be described thus: Prevention of reactive oxygen species accumulation from hydrogen peroxide (CDFFDA dye). In kind it is cell-based. The following applies: Rattus norvegicus, Hippocampal neuron; hydrogen peroxide for three hours, day 18 hippocampal cultures; read-out: Potency of Reduction in Oxidized CDFFDA (ROS) EC50. The text has this:
Cell cultures: all compounds were screened with dissociated hippocampal cultures derived from embryonic day 18 rats as the primary test system. With this preparation, primary neurons were used to test for prevention of reactive oxygen species accumulation in response to hydrogen peroxide. In brief, hippocampal tissue was obtained commercially through Brain Bits (Springfield, Ill.) and cultures prepared as previously described (Brewer, G. J. Serum-free B27/neurobasal medium supports differentiated growth of neurons from the striatum, substantia nigra, septum, cerebral cortex, cerebellum and dentate gyms. J. Neurosci. Res. 1995, 42, 674-683). […]
Hydrogen peroxide and glutamate generate reactive oxygen species (ROS) such as superoxide anions, hydrogen peroxide and hydroxyl radicals which can reactively damage cellular components including DNA, lipids and proteins (Anderson et al. (2001). Green tea catechins partially protect DNA from OH radical-induced strand breaks and base damage through fast chemical repair of DNA radicals. Carcinogenesis 2001, 22:1189-1193). […] The cultures were then treated with 30 nM hydrogen peroxide for three hours and the fluorescence measured at Ex/Em 485/508. Background fluorescence was subtracted from values obtained from wells without cells.

pEC50: −log10 of the molar value.

Usually ED50 stands for the dose that gives a 50% effect, or the effect in half of the subjects. A higher ED50 goes with a need for a large dose. As usually defined, the pEC50 is the negative decadic logarithm of the EC50, by convention in mol/L. Turning to `NS(=O)(=O)NCC(F)(F)c1ccccc1F` [Example 1, 2,2-Difluoro-2-(2-fluorophenyl)-ethyl-1-sulfamide], in assay [1], the “Duration of action MES” value stood at 4 h and the ED50 was found to be 50 mg/kg. The pEC50 in the assay on hippocampal neurons was 10.52.

Take `NS(=O)(=O)NCC(F)(F)c1ccccc1Cl` [Example 2, 2,2-Difluoro-2-(2-chlorophenyl)-ethyl-1-sulfamide]: in assay [1], the “Duration of action MES” value is 4 h and the ED50 is 54 mg/kg. Besides, the pEC50 with hippocampal neurons is 11.00.
